Assay results from US20040077754A1, “Dental materials based on acrylic-ester phosphonic acids” (priority 2002, published 2004).

Settings: 20% solution in D2O/EtOH-d6 (1:1), stabilized with 200 ppm 2,6-di-tbutyl-4-methylphenol, stored at 37° C., standing time 2 months
Method: In connection with the present invention, compounds which are stable in water or in mixtures of water and water-miscible solvents in a concentration of approx. 20 wt.-% and a pH value of approx. 2.0 at 37° C. for at least 6 weeks, i.e. hydrolyze to less than 1%, are described as hydrolysis-stable.
A 20% solution of MAPA, stabilized with 200 ppm 2,6-di-tbutyl-4-methylphenol, was prepared in D2O/EtOH-d6 (1:1), stored at 37° C. and ^1H-NMR-spectroscopically examined. After a standing time of 2 months, no changes in the ^1H-NMR-spectrum were able to be detected.

C=C(COCCP(=O)(O)O)C(=O)Oc1c(C)cc(C)cc1C [MAPA]
Hydrolysis stability: changes in the 1H-NMR spectrum: no changes
